Data: patent US7060725B2, “Substituted sulfamate anticonvulsant derivatives” (Janssen Pharmaceutica N.V., priority 2002, dated 2006)

What was measured:
[1] = system: maximal electroshock seizure (MES-induced seizure spread); assay: Maximal electroshock seizure (MES) test, mouse; type: in vivo, mice
Procedure: Anticonvulsant activity was determined using the standard MES model for generalized tonic-clonic seizures (Swinyard E A, Woodhead J H, White H S, Franklin M R, In: Levy R H, Mattson R H, Meldrum B S, Penry J K, Dreifuss F E eds. Antiepileptic drugs. New York: Raven Press, 1989:85–102).
An electric stimulus of 0.2 sec duration, 60 Hz, 50 mA in mice, 150 mA in rats, was delivered via corneal electrodes primed with an electrolyte solution containing an anesthetic agent (0.5% tetracaine hydrochloride in 0.9% saline).
Mice or rats were randomly selected into control and test groups. The animals were dosed with vehicle or test compound, at varying concentrations. […] Rats were subjected to electrical stimulus at time intervals between 15 minutes and 4 hours following administration of test compound. Abolition of the hind limb tonic extensor component was an indication of the test compound's ability to inhibit MES-induced seizure spread.
The ED50 (the calculated dose required to block the hindlimb tonic-extensor component of the maximal electroshock seizure in 50% of the animals tested) was calculated. A probit analysis (Finney D J. Probit Analysis. Cambridge, England: Cambridge University Press, 1971) was used to calculate the ED50.
Following the mouse procedure described above, representative compounds of the instant invention were tested for biological activity in the mouse, with results as listed in Table 5. Mouse activity is listed as number of mice active/total number of mice tested @ time after administration of the test compound.

[2] = system: maximal electroshock seizure (MES-induced seizure spread); assay: Maximal electroshock seizure (MES) test, rat; type: in vivo, rats
Procedure: Anticonvulsant activity was determined using the standard MES model for generalized tonic-clonic seizures (Swinyard E A, Woodhead J H, White H S, Franklin M R, In: […], Meldrum […], Dreifuss F E eds. Antiepileptic drugs. New York: Raven Press, 1989:85-102). An electric stimulus of 0.2 sec duration, 60 Hz, 50 mA in mice, 150 mA in rats, was delivered via corneal electrodes primed with an electrolyte solution containing an anesthetic agent (0.5% tetracaine hydrochloride in 0.9% saline). Mice or rats were randomly selected into control and test groups. The animals were dosed with vehicle or test compound, at varying concentrations. Mice were subjected to the electrical stimulus at 30 minutes and 4 hours following administration of test compound. […] Abolition of the hind limb tonic extensor component was an indication of the test compound's ability to inhibit MES-induced seizure spread. […] A probit analysis (Finney D J. Probit Analysis. Cambridge, England: Cambridge University Press, 1971) was used to calculate the ED50. Following the rat procedure described above, representative compounds of the instant invention were tested for biological activity in the rat, with results as listed in Table 6 and 7. Rat activity is listed as number of rats active/total number of rats tested @ time after administration of the test compound.

[3] = 100 mg/kg, @ 4 hrs after administration
[4] = 300 mg/kg, @ 0.5 hrs after administration
[5] = 300 mg/kg, @ 4 hrs after administration

CC(=O)[N-]S(=O)(=O)OC[C@@]12OC[C@H]3OC(C)(C)OC3[C@@H]1OC(C)(C)O2.[Na+] (stereo partly drawn) [Compound 18, N-acetyl-2,3:4,5-bis-O-(1-methylethylidene)-β-D-fructopyranose sulfamate sodium salt]
Mouse Activity (number of mice active/total number of mice tested) ([1]; 100 mg/kg, @ 0.5 hrs after administration): 1/3 @ 0.5 hrs | Mouse Activity (number of mice active/total number of mice tested) [1, 3]: 2/3 @ 4 hrs | Mouse Activity (number of mice active/total number of mice tested) [1, 4]: 1/1 @ 0.5 hrs | Mouse Activity (number of mice active/total number of mice tested) [1, 5]: 1/1 @ 4 hrs | Mouse Activity ([1]; dosage 30 mg/kg): No activity | Rat Activity (oral) (number of rats active/total number of rats tested) ([2]; 30 mg/kg, @ 0.25 hrs): 1/4 @ 0.25 hrs | Rat Activity (oral) (number of rats active/total number of rats tested) ([2]; 30 mg/kg, @ 0.5 hrs): 1/4 @ 0.5 hrs | Rat Activity (oral) (number of rats active/total number of rats tested) ([2]; 30 mg/kg, @ 2 hrs): 1/4 @ 2 hrs | Rat Activity (oral) (number of rats active/total number of rats tested) ([2]; 30 mg/kg, @ 4 hrs): 3/4 @ 4 hrs

CC1(C)OC2[C@@H](CO[C@@]3(COS(=O)(=O)NO)OC(C)(C)O[C@@H]23)O1 (stereo partly drawn) [Compound 9, N-hydroxy-2,3:4,5-bis-O-(1-methylethylidene)-β-D-fructopyranose sulfamate]
Mouse Activity (number of mice active/total number of mice tested) [1, 5]: 1/1 @ 4 hrs | Mouse Activity ([1]; dosage 30 mg/kg): No activity | ED50 ([2]; @ 4 hrs): 68.72 @ 4 hrs m/k | Rat Activity (oral) (number of rats active/total number of rats tested) ([2]; 30 mg/kg, @ 1 hr): 1/4 @ 1 hr | Rat Activity (oral) (number of rats active/total number of rats tested) ([2]; 30 mg/kg, @ 2 hrs): 2/4 @ 2 hrs | Rat Activity (oral) (number of rats active/total number of rats tested) ([2]; 30 mg/kg, @ 4 hrs): 1/4 @ 4 hrs

CCOC(=O)CCNS(=O)(=O)OCC12OCC3OC(C)(C)OC3C1OC(C)(C)O2 (stereo not drawn) [Compound 4]
Mouse Activity ([1]; dosage 30, 100, 300 mg/kg): No Activity | Rat Activity (oral) (number of rats active/total number of rats tested) ([2]; 30 mg/kg, @ 1 hr): 1/4 @ 1 hr

CC(C)(C)OC(=O)NS(=O)(=O)OC[C@@]12OC[C@H]3OC(C)(C)OC3[C@@H]1OC(C)(C)O2 (stereo partly drawn) [Compound 14, N-t-butoxycarbonyl-2,3:4,5-bis-O-(1-methylethylidene)-β-D-fructopyranose sulfamate]
Mouse Activity ([1]; dosage 30, 100, 300 mg/kg): No activity | Rat Activity (oral) (number of rats active/total number of rats tested) ([2]; 30 mg/kg, @ 2 hrs): 3/4 @ 2 hrs | Rat Activity (oral) (number of rats active/total number of rats tested) ([2]; 30 mg/kg, @ 4 hrs): 4/4 @ 4 hrs

CN(O)S(=O)(=O)OCC12OCC3OC(C)(C)OC3C1OC(C)(C)O2 (stereo not drawn) [Compound 12]
Mouse Activity ([1]; dosage 30, 100, 300 mg/kg): No activity | Rat Activity (oral) (number of rats active/total number of rats tested) ([2]; 15 mg/kg, @ 1 hr): 1/4 @ 1 hr

CC1(C)OC2COC3(COS(=O)(=O)NCCBr)OC(C)(C)OC3C2O1 (stereo not drawn) [Compound 3]
Mouse Activity ([1]; dosage 30, 100, 300 mg/kg): No Activity | Rat Activity (oral) (number of rats active/total number of rats tested) ([2]; 30 mg/kg, @ 1 hr): 1/4 @ 1 hr | Rat Activity (oral) (number of rats active/total number of rats tested) ([2]; 30 mg/kg, @ 2 hrs): 2/4 @ 2 hrs

CONS(=O)(=O)OCC12OCC3OC(C)(C)OC3C1OC(C)(C)O2 (stereo not drawn) [Compound 10]
Mouse Activity (number of mice active/total number of mice tested) [1, 4]: 1/1 @ 0.5 hrs | Mouse Activity (number of mice active/total number of mice tested) [1, 5]: 1/1 @ 4 hrs | Mouse Activity ([1]; dosage 30, 100 mg/kg): No activity

CC1(C)OC2[C@@H](CO[C@@]3(COS(=O)(=O)NC(=O)OCc4ccccc4)OC(C)(C)O[C@@H]23)O1 (stereo partly drawn) [Compound 15, N-benzyloxycarbonyl-2,3:4,5-bis-O-(1-methylethylidene)-β-D-fructopyranose sulfamate]
Mouse Activity (number of mice active/total number of mice tested) ([1]; 100 mg/kg, @ 1 hr after administration): 3/3 @ 1 hr | Mouse Activity (number of mice active/total number of mice tested) [1, 3]: 2/3 @ 4 hrs | Mouse Activity (number of mice active/total number of mice tested) [1, 4]: 1/1 @ 0.5 hrs | Mouse Activity (number of mice active/total number of mice tested) [1, 5]: 1/1 @ 4 hrs | Mouse Activity ([1]; dosage 30 mg/kg): No activity
